O=P(O)(O)c1ccccc1
solubility (mole fraction)
Settings	288.15 K	293.15 K	298.15 K	303.15 K	308.15 K	313.15 K	318.15 K
in acetone	0.136	0.155	0.174	0.197	0.22	0.245	0.277
in acetonitrile	0.0136	0.0166	0.0194	0.0228	0.0275	0.0317	0.0365
in chloroform	0.00104	0.00134	0.00164	0.00211	0.00257	0.0032	0.00393
in ethyl acetate	0.00523	0.00634	0.00755	0.00896	0.0106	0.0127	0.0155
in n-propanol	0.305	0.336	0.358	0.388	0.417	0.445	0.47
